Measured values taken from patent US12391685B2, “Inhibitors of RNA-guided nuclease target binding and uses thereof” (THE BROAD INSTITUTE, INC., priority 2018, dated 2025).
Read-outs that look alike come from different tables or passages of the source.

Legend:
[1] = molecular target: T1, SpCas9:gRNA complex (Streptococcus pyogenes serotype M1, UniProt Q99ZW2); assay: 19F NMR binding assay; parameters: species or system S. pyogenes; details: for receptor occupancy at 50 µM: read-out: Fractional Occupancy
T1 construct: made in house; host or cells: E. coli Rosetta (DE3)
Protocol: Table 8 NMR parameters used for analysis of BRD7087 binding to SpCas9:gRNA complex. The binding study of BRD7087 to SpCas9:gRNA complex was analyzed based on the method described by Shortridge et. al. The linewidth (LW) increases with increasing SpCas9:gRNA concentration, as expected. Peak intensity values were used to measure the fractional occupancy using the equation Fractional Occupancy=(1−Ibound/I0), where I0 is the intensity of the peak with no protein in the sample. The peak area remains relatively constant, as expected for a fixed concentration of ligand.
NMR binding assay. All samples were prepared with 50 μM BRD7087 in 20 mM Tris buffer (pH 7.4) with varying concentrations of SpCas9:gRNA in a 3 mm NMR tube. Experiments were performed on a 600 MHZ (^19F: 564.71 MHZ) Bruker Avance III NMR spectrometer equipped with a 5 mm QCI-F CryoProbe and a SampleJet for automated sample handling. To acquire spectra, a standard one-pulse ^19F experiment with WALTZ-16 for proton decoupling during acquisition, a 5 second recycle delay, and 256 scans were used. All spectra were recorded at 280 K. NMR data were apodized with a 1 Hz exponential function prior to Fourier transformation. All spectra were baseline corrected, and peak widths and intensities were extracted using the automated line-fitting feature provided with the MNova software package.

[2] = molecular target: T2, dCas9-based transcription-activation complex (Streptococcus pyogenes serotype M1, UniProt Q99ZW2, D10A, form not given); assay: dCas9-based transcription activation of HBG1 in HEK293FT cells (RT-qPCR); format: cell-based, S. pyogenes; details: 20 μM
T2 construct: "dSpCas9|Feng Zhang lab|NA"; The MS2-p65-HSF1(-GFP) effector is a separate chain recruited through MS2 aptamers in the sgRNA
Protocol: Transcription activation experiments and quantitative RT-PCR analyses. HEK293FT cells were maintained in high glucose DMEM with glutamax (Life Technologies) and supplemented with 10% FBS (Life Technologies), 1% penicillin-streptomycin (Life Technologies) and 1 mM sodium pyruvate (Life Technologies). For transcription activation experiments, 20,000 cells/well were plated in a poly D-lysine-coated 96-well plate. The cells were transiently transfected with a 1:1:1 mass ratio of the dCas9 plasmid, MS2-P65-HSF1 effector plasmid and the sgRNA plasmid targeting the HBG1 gene or an RFP control plasmid. A total of 0.3 μg plasmid DNA was transfected using Lipofectamine 2000 (Life Technologies) according to manufacturer's protocol. Immediately after transfection, the cells were treated with an appropriate dose of the small-molecule inhibitors. A DMSO solution of compound (20 mM) was resuspended in the 10% FBS containing growth media and thoroughly mixedbefore adding to the cells. After 48 h the cells were lysed and 5 μL of the cell lysate was used to perform reverse transcription using the RevertAid RT Reverse Transcription Kit (Thermo Fischer Scientific) as described by Joung J. et al. qPCR reactions were performed to quantify RNA expression using the TaqMan probes (Life Technologies, HBG1/HBG2: Hs00361131_g1, ACTB: Hs01060665_g1) and TaqMan Fast Advanced Master Mix (Life Technologies) in 5 μL multiplexed reactions and 384-well format using the LightCycler 480 Instrument II (Roche). For each sample, four technical replicates were performed. Data were analyzed using the LightCycler 480 software (Roche) by the ΔΔCt method: Ct values for the gene of interest (HBG1) were normalized to Ct values for the housekeeping gene (ACTB), and fold-changes in the expression level of gene of interest were normalized to RFP-transfected control. The data is reported as mean±S.E.M. for technical replicates.

[3] = molecular target: T3, SpCas9:gRNA interaction (Streptococcus pyogenes serotype M1, UniProt Q99ZW2); assay: Fluorescence polarization assay for SpCas9-gRNA binding; parameters: species or system S. pyogenes; details: 10-30 μM
T3 construct: made in house; host or cells: E. coli Rosetta (DE3)
Protocol: FIGS. 10A-10E—(FIG. 10A) Fluorescence polarization assay for detecting SpCas9-gRNA binding. A FITC-labeled crRNA:tracrRNA (25 nM) was titrated with an increasing amount of SpCas9 (7.5-250 nM). Error bars represent ±s.d. across technical replicates (n=3). […] An unlabeled crRNA:tracrRNA (25 nM) was pre-incubated with SpCas9 (25 nM) for 10 min before the addition of FITCcrRNA:tracrRNA (25 nM). Error bars represent ±s.d. across technical replicates (n=3). (FIG. 10C) Fluorescence polarization assay for determining the effect of BRD0539 in the SpCas9-FITCcrRNA:tracrRNA binding. SpCas9 (25 nM) was incubated with the indicated amount of BRD0539 (10-30 μM) for 15 min followed by the addition of FITC-crRNA:tracrRNA (25 nM), which was incubated for 30 min before measuring the FP signal. Error bars represent ±s.d. across technical replicates (n=3). (FIG. 10D) In vitro pulldown assay of SpCas9 by the BRD0539-biotin conjugate from WM793-SpCas9 cell lysate. Streptavidin magnetic beads pre-loaded with either BRD0539-biotin or biotin-azide were incubated with WM793-SpCas9 cell lysate for 12 h before processing the samples for western blotting. BRD0539 (20 μM) was used as a competitor. F and E represent the flow-through and eluent, respectively. […]

[4] = 50 μM BRD7087, 0.75 μM SpCas9:gRNA
[5] = 50 μM BRD7087, 1.0 μM SpCas9:gRNA
[6] = 50 μM BRD7087, 1.25 μM SpCas9:gRNA
[7] = 50 μM BRD7087, 1.5 μM SpCas9:gRNA
[8] = 50 μM BRD7087, 1.75 μM SpCas9:gRNA

T1 sequence (Q99ZW2 whole entry, one chain of several): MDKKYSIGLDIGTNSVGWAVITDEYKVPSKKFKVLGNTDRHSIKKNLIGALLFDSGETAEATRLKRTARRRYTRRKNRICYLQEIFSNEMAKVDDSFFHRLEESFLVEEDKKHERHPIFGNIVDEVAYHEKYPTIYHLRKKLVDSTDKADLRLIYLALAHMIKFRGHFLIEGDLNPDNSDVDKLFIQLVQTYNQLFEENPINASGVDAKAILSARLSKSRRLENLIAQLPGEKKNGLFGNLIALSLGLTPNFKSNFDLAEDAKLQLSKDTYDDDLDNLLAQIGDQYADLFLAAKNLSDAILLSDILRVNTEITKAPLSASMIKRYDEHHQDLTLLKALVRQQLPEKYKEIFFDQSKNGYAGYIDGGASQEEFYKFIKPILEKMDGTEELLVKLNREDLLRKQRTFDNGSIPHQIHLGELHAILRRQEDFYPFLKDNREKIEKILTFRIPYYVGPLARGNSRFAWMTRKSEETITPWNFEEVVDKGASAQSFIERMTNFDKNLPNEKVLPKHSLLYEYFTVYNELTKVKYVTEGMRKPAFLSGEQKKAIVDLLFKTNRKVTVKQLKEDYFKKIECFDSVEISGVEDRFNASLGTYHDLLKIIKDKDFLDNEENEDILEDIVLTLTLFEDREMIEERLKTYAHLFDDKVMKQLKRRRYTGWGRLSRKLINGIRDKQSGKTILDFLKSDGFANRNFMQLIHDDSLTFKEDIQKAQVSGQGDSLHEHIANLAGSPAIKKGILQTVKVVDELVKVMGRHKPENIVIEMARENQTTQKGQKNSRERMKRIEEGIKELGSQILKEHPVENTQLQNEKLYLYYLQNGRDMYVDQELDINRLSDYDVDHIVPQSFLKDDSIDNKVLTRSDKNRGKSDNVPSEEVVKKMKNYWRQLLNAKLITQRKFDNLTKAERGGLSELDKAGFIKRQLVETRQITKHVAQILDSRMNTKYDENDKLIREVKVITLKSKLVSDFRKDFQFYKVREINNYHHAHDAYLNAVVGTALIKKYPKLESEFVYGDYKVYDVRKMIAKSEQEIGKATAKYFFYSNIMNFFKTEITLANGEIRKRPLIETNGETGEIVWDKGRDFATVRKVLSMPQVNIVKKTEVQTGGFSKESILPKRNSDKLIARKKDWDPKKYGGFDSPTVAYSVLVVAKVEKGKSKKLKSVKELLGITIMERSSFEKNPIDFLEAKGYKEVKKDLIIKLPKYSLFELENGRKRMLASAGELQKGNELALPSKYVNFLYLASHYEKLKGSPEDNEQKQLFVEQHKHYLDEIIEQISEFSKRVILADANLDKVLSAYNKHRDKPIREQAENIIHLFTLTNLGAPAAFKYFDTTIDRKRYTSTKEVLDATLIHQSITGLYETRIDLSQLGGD
T3 sequence (Q99ZW2 whole entry): as the sequence (Q99ZW2 whole entry, one chain of several) above
T2 sequence (Q99ZW2 whole entry, form open, one chain of several, change not shown): as the sequence (Q99ZW2 whole entry, one chain of several) above

Structure (SMILES) | LW (linewidth of 19F signal) [1, 4] [Hz] | receptor occupancy at 50 µM [1, 4] [%] | LW (linewidth of 19F signal) [1, 5] [Hz] | receptor occupancy at 50 µM [1, 5] [%] | LW (linewidth of 19F signal) [1, 6] [Hz] | receptor occupancy at 50 µM [1, 6] [%] | LW (linewidth of 19F signal) [1, 7] [Hz] | receptor occupancy at 50 µM [1, 7] [%] | LW (linewidth of 19F signal) [1, 8] [Hz] | receptor occupancy at 50 µM [1, 8] [%] | binding to SpCas9:gRNA by 19F line broadening (in words) ([1]; significant broadening at protein concentrations as low as 0.75 μM) | inhibition of transcriptional activation [2] [%] | effect on SpCas9-FITC-crRNA:tracrRNA polarization signal [3]
OC[C@H]1Nc2ccc(-c3cccc(F)c3)cc2[C@H]2[C@@H]1CCN2Cc1ccncc1 [BRD7087, ((3aR,4S,9bR)-8-(3-Fluorophenyl)-1-(pyridin-4-ylmethyl)-2,3,3a,4,5,9b-hexahydro-1H-pyrrolo[3,2-c]quinolin-4-yl) methanol] | 4.3 | 13.1 | 4.6 | 18.2 | 5.3 | 30.4 | 5.9 | 34.4 | 6.3 | 40.1 | tight binding | ~60 | –
Cc1ccc(S(=O)(=O)N2CC[C@@H]3[C@H](CO)Nc4ccc(-c5ccccc5F)cc4[C@@H]32)cc1 [BRD0539, ((3aR,4R,9bR)-8-(2-fluorophenyl)-1-tosyl-2,3,3a,4,5,9b-hexahydro-1H-pyrrolo[3,2-c]quinolin-4-yl) methanol] | – | – | – | – | – | – | – | – | – | – | – | – | did not perturb the polarization signal
